Source: US12428406B2 (PMV Pharmaceuticals, Inc., priority 2019, dated 2025)

molecular target: T1, p53 Y220C (Homo sapiens, UniProt P04637, Y220C); assay: In vitro DNA binding activity assay (HTRF / TR-FRET): stabilization of p53 Y220C and increase of its DNA binding activity; format: biochemical; details: recombinant His-tagged p53 Y220C DNA binding domain (aa 94-312), biotin-labeled consensus DNA, incubated at 27° C. or 29° C. for 60 min
T1 construct: The recombinant protein was a truncation mutant containing only amino acids 94-312 of p53; made in house; host or cells: E. coli
Procedure, shortened: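 His-tagged p53 Y220C, E. coli-expressed, binding biotin-labeled consensus DNA measured by HTRF (anti-His-APC, streptavidin-europium). Compounds from 4.5 mM DMSO stocks, 3-fold serial dilutions; incubations at room temperature 15 min, then 20 min. SC150 = concentration raising DNA binding by 50%.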

T1 sequence (P04637 94-312, change not shown): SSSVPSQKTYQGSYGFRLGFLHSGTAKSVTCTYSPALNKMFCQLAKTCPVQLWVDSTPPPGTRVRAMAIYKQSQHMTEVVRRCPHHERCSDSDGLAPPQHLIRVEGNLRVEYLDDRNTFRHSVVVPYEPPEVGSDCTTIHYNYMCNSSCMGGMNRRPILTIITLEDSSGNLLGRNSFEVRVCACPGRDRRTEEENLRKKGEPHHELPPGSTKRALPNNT

**Q.** Which “SC150 (concentration of the compound required to increase the DNA binding activity by 50%)” value does the source give for COc1cc(-c2nccs2)ccc1NCC#Cc1cc2c(NC3CCN(C)CC3)cccc2n1CC(F)(F)F [Compound 509A, 2-(3-{[2-methoxy-4-(1,3-thiazol-2-yl)phenyl]amino}prop-1-yn-1-yl)-N-(1-methylpiperidin-4-yl)-1-(2,2,2-trifluoroethyl)-1H-indol-4-amine] here?
**A.** + (+ = 0 μM ≤ SC150 < 0.05 μM)

**Q.** For CCC(=O)OC(COC)CN1CCC(Nc2cccc3c2cc(C#CCNc2ccc(S(N)(=O)=O)cc2OC)n3CC(F)(F)F)CC1 (stereo not shown) [Compound 610A, 1-methoxy-3-{4-[(2-{3-[(2-methoxy-4-sulfamoylphenyl)amino]prop-1-yn-1-yl}-1-(2,2,2-trifluoroethyl)-1H-indol-4-yl)amino]piperidin-1-yl} propan-2-yl propanoate], which “SC150 (concentration of the compound required to increase the DNA binding activity by 50%)” value is on record?
**A.** + (+ = 0 μM ≤ SC150 < 0.05 μM)

**Q.** With COc1cc(S(=O)(=O)N2CCN(C(C)=O)CC2)ccc1NCC#Cc1cc2c(NC3CCN(C)CC3)cccc2n1CC(F)(F)F [Compound 479A] as the compound, how does the “SC150 (concentration of the compound required to increase the DNA binding activity by 50%)” value read?
**A.** + (+ = 0 μM ≤ SC150 < 0.05 μM)

**Q.** With COC(=O)c1ccc(NCC#Cc2cc3c(N[C@@H]4CCN(CC(C)O)C[C@@H]4F)cccc3n2CC(F)(F)F)c(OC)c1 (mixture of isomers) [Compound 900A, methyl 4-{[3-(4-{[(3S,4R)-3-fluoro-1-(2-hydroxypropyl)piperidin-4-yl]amino}-1-(2,2,2-trifluoroethyl)-1H-indol-2-yl)prop-2-yn-1-yl]amino}-3-methoxybenzoate] as the compound, how does the “SC150 (concentration of the compound required to increase the DNA binding activity by 50%)” value read?
**A.** + (+ = 0 μM ≤ SC150 < 0.05 μM)

**Q.** For COC[C@H](CN1CCC(Nc2cccc3c2cc(C#CCNc2ccc(S(C)(=O)=O)cc2OC)n3CC(F)(F)F)CC1)OC(=O)C(C)C [Compound 638A, (2S)-1-{4-[(2-{3-[(4-methanesulfonyl-2-methoxyphenyl)amino]prop-1-yn-1-yl}-1-(2,2,2-trifluoroethyl)-1H-indol-4-yl)amino]piperidin-1-yl}-3-methoxypropan-2-yl 2-methylpropanoate], which “SC150 (concentration of the compound required to increase the DNA binding activity by 50%)” value is on record?
**A.** + (+ = 0 μM ≤ SC150 < 0.05 μM)

**Q.** With COc1cc(S(=O)(=O)NC(C)=O)ccc1NCC#Cc1cc2c(N[C@H]3CC[C@H](N4CC5(COC5)C4)CC3)cccc2n1CC(F)(F)F [Compound 208A, N-(3-methoxy-4-{[3-(4-{[(1R,4R)-4-{2-oxa-6-azaspiro[3.3]heptan-6-yl}cyclohexyl]amino}-1-(2,2,2-trifluoro-ethyl)-1H-indol-2-yl)prop-2-yn-1-yl]amino}benzene-sulfonyl)acetamide] as the compound, how does the “SC150 (concentration of the compound required to increase the DNA binding activity by 50%)” value read?
**A.** + (+ = 0 μM ≤ SC150 < 0.05 μM)

**Q.** With CNC(=O)c1ccc(NCC#Cc2cc3c(NC4CCN(CC(O)CO)CC4)cccc3n2CC(F)(F)F)c(OC)c1 (stereo not shown) [Compound 658A, 4-{[3-(4-{[1-(2,3-dihydroxypropyl)piperidin-4-yl]amino}-1-(2,2,2-trifluoroethyl)-1H-indol-2-yl)prop-2-yn-1-yl]amino}-3-methoxy-N-methylbenzamide] as the compound, how does the “SC150 (concentration of the compound required to increase the DNA binding activity by 50%)” value read?
**A.** + (+ = 0 μM ≤ SC150 < 0.05 μM)

**Q.** For CCCn1c(C#CCNc2c(F)cc(S(C)(=O)=O)cc2OC)cc2c(N[C@H]3CCN(C[C@@H](O)COC)C[C@H]3F)cccc21 [Compound 880A], which “SC150 (concentration of the compound required to increase the DNA binding activity by 50%)” value is on record?
**A.** ++++ (++++ = 0.2 μM ≤ SC150 < 1 μM)

**Q.** How did the “SC150 (concentration of the compound required to increase the DNA binding activity by 50%)” value turn out when COc1cc(C(N)=O)ccc1NCC#Cc1cc2c(N[C@H]3C[C@@H](C)O[C@@H](C)C3)cccc2n1CC(F)(F)F [Compound 1029A, 3-methoxy-4-{[3-(4-{[(2R,4R,6S)-2,6-dimethyloxan-4-yl]amino}-1-(2,2,2-trifluoroethyl)-1H-indol-2-yl)prop-2-yn-1-yl]amino}benzamide] was run?
**A.** +++ (+++ = 0.1 μM ≤ SC150 < 0.2 μM)

**Q.** CNC(=O)c1ccc(NCC#Cc2cc3c(N[C@H]4CCNC[C@H]4F)cccc3n2CC(F)(F)F)c(OC)c1 [Compound 851A] was tested. Which “SC150 (concentration of the compound required to increase the DNA binding activity by 50%)” value did it give?
**A.** + (+ = 0 μM ≤ SC150 < 0.05 μM)
